Patent US20140271855A1, “SOVAPREVIR TABLETS” (Achillion Pharmaceuticals Inc., priority 2013, published 2014)

How the values were obtained:
[1] = Human pharmacokinetic parameters following a single Sovaprevir tablet dose; assay type: in vivo; conditions: single tablet dose 200 mg, mean
Method: A single 200 mg dose of Sovaprevir was administered to human subjects.
The pharmacokinetic parameters shown in TABLE 4 were measured in humans following administration of a single Sovaprevir tablet dose.

[2] = as above; assay type: in vivo; conditions: mean
[3] = single tablet dose 100 mg (Fasted)
[4] = single tablet dose 100 mg (Fed)

Question: For `C=C[C@@H]1C[C@]1(NC(=O)[C@@H]1C[C@@H](Oc2cc(-c3ccccc3)nc3cc(OC)ccc23)CN1C(=O)[C@@H](CC(=O)N1CCCCC1)C(C)(C)C)C(=O)NS(=O)(=O)C1CC1` [Sovaprevir], which “AUC(0-∞)” value [1] is on record?
Answer: 500.0 ng·h/mL

Question: And the Cmax [1]?
Answer: 109 ng/mL

Question: What about the Tmax [1] of the same compound?
Answer: 2.61 h

Question: And the “AUC(0-72)” value [2, 3]?
Answer: 288 ng·h/mL

Question: What about the “AUC(0-∞)” value [2, 3] of the same compound?
Answer: 302 ng·h/mL

Question: What about the Cmax [2, 3] of the same compound?
Answer: 67.2 ng/mL

Question: And the Tmax [2, 3]?
Answer: 1.58 h

Question: What about the “AUC(0-72)” value [2, 4] of the same compound?
Answer: 220 ng·h/mL

Question: And the “AUC(0-∞)” value [2, 4]?
Answer: 228 ng·h/mL

Question: And the Cmax [2, 4]?
Answer: 61.9 ng/mL

Question: What about the Tmax [2, 4] of the same compound?
Answer: 4.20 h

Question: What about the “AUC(0-72)” value ([2]; single tablet dose 200 mg) of the same compound?
Answer: 489.9 ng·h/mL

Question: And the “AUC(0-72)” value ([2]; single tablet dose 250 mg)?
Answer: 735.6 ng·h/mL

Question: And the “AUC(0-∞)” value ([2]; single tablet dose 250 mg)?
Answer: 748.8 ng·h/mL

Question: What about the Cmax ([2]; single tablet dose 250 mg) of the same compound?
Answer: 172 ng/mL

Question: And the Tmax ([2]; single tablet dose 250 mg)?
Answer: 3.40 h

Question: And the “AUC(0-72)” value ([2]; single tablet dose 300 mg)?
Answer: 1301 ng·h/mL

Question: What about the “AUC(0-∞)” value ([2]; single tablet dose 300 mg) of the same compound?
Answer: 1314 ng·h/mL

Question: And the Cmax ([2]; single tablet dose 300 mg)?
Answer: 333 ng/mL

Question: What about the Tmax ([2]; single tablet dose 300 mg) of the same compound?
Answer: 3.39 h
